Structures can show the parent of a compound that is named as a salt. Values belong to the molecule of their own block, whether it stands above or below them.
Legend:
[1] = tested on: Porcine Smooth Muscle Cell; test: Effects of compounds on cell proliferation using 3H thymidine incorporation; format: cell-based; settings: for IC50: serum/growth factor stimulated cells, 3H thymidine incorporation, 24-36 h, read-out: Porcine Smooth Muscle Cell Antiproliferation IC50
Description: The compounds of this invention are useful as antiproliferative agents. The following procedures show the evaluation of representative compounds of this invention in standard pharmacological test procedure which measured ability of the evaluated compound to inhibit smooth muscle cell proliferation
Effects of Compounds On Cell Proliferation Using ^3H Thymidine Incorporation
Human and porcine smooth muscle cells were tested in early passage (generally passage 3-7) at sub-confluent conditions. Cultures were grown in 16 mm (24 well) multi-well culture dishes in medium 199 supplemented with 10% fetal bovine serum and 2% antibiotic/antimycotic. At sub-confluence, the cells were placed in a defined serum free medium (AIM-V; Gibco) for 24-48 h prior to initiating the experimental protocol.
Compounds were added to each well at 50 fold dilution (20 μL/well) and the plates were incubated for 24-36 h at 37° C. in 5% CO2. Compounds were initially dissolved in 50% ethanol and serially diluted into media. Compounds were routinely evaluated at concentrations from 1 to 100 μM. As a control, grade II porcine intestinal mucosal heparin (sodium salt) was routinely evaluated in all cell preparations at concentrations from 0.1 to 100 μg/mL.
At the completion of the test procedure, plates were placed on ice, washed three times with ice cold phosphate buffered saline (PBS) and incubated in ice cold 10% trichloroacetic acid (TCA) got 30 min to remove acid soluble proteins. Solution was transferred to scintillation vials containing 0.4 N HCl (500 μL/vial to neutralize NaOH) and each well was rinsed two times with water (500 μL) for a total volume of 2 mL/vial.
Data was obtained, in triplicate, for both control and experimental samples. Control (100%) data was obtained from maximally stimulated cells, as the result of growth factor or serum stimulation. Experimental data was obtained from cells maximally stimulated with growth factor or serum and treated with compound. Data are expressed as an IC50 or percent inhibition in Table I below.

SMILES: CC(=O)OC[C@H]1O[C@H](O[C@H]2[C@H](OC(C)=O)[C@@H](OC(C)=O)[C@H](OCc3ccc(Cl)c([N+](=O)[O-])c3)O[C@@H]2COC(C)=O)[C@H](OC(C)=O)[C@@H](OC(C)=O)[C@@H]1OC(C)=O [Example 1, 4-Chloro-3-nitro-benzyl-β-D-maltoside heptaacetate]
- IC50 [1]: 0.85 µM

SMILES: CC(=O)OC[C@H]1O[C@H](O[C@H]2[C@H](OC(C)=O)[C@@H](OC(C)=O)[C@H](OCc3ccc(Cl)c(NC(=O)[C@@H](N)CC(=O)OC(C)(C)C)c3)O[C@@H]2COC(C)=O)[C@H](OC(C)=O)[C@@H](OC(C)=O)[C@@H]1OC(C)=O [Example 2, N-{5-[(Hepta-O-acetyl-β-D-maltosyloxy)-methyl]-2-chloro-phenyl}-L-aspartamide-γ-tert-butyl ester]
- IC50 [1]: 4.61 µM

SMILES: CC(=O)OC[C@H]1O[C@H](O[C@H]2[C@H](OC(C)=O)[C@@H](OC(C)=O)[C@H](OCc3ccc(Cl)c(NC(=O)[C@H](C)NC(=O)OCC4c5ccccc5-c5ccccc54)c3)O[C@@H]2COC(C)=O)[C@H](OC(C)=O)[C@@H](OC(C)=O)[C@@H]1OC(C)=O [Example 3, N-{2-Chloro-5-[(2,2′,3,3′,4′,6,6′)-hepta-O-acetyl-β-D-maltosyl-oxymethyl]-phenyl}-(9H-fluoren-9-ylmethoxycarbonyl)-L-alaninamide]
- IC50 [1]: 1.71 µM

SMILES: CC(=O)OC[C@H]1O[C@H](O[C@H]2[C@H](OC(C)=O)[C@@H](OC(C)=O)[C@H](OCc3ccc(Cl)c(NC(=O)c4ccc(C(=O)c5ccccc5)cc4)c3)O[C@@H]2COC(C)=O)[C@H](OC(C)=O)[C@@H](OC(C)=O)[C@@H]1OC(C)=O [Example 4, 4-Benzoyl-N-{2-chloro-5-[(2,2′,3,3′,4′,6,6′-hepta-O-acetyl-β-D-maltosyl)-oxy-methyl]-phenyl}-benzamide]
- IC50 [1]: 0.164 µM

SMILES: CC(=O)OC[C@H]1O[C@@H](SCc2ccc(Cl)c([N+](=O)[O-])c2)[C@H](OC(C)=O)[C@@H](OC(C)=O)[C@@H]1O[C@H]1O[C@H](COC(C)=O)[C@@H](OC(C)=O)[C@H](OC(C)=O)[C@H]1OC(C)=O [Example 5, (4-Chloro-3-nitro-benzyl)-hepta-O-acetyl-1-thio-β-D-maltoside]
- IC50 [1]: 1.14 µM

SMILES: CC(=O)OC[C@H]1O[C@@H](SCc2ccc(Cl)c(N)c2)[C@H](OC(C)=O)[C@@H](OC(C)=O)[C@@H]1O[C@H]1O[C@H](COC(C)=O)[C@@H](OC(C)=O)[C@H](OC(C)=O)[C@H]1OC(C)=O [Example 6, (3-Amino-4-chloro-benzyl) hepta-O-acetyl-1-thio-β-D-maltoside]
- IC50 [1]: 0.667 µM

SMILES: CC(=O)Nc1cc(CS[C@@H]2O[C@H](COC(C)=O)[C@@H](O[C@H]3O[C@H](COC(C)=O)[C@@H](OC(C)=O)[C@H](OC(C)=O)[C@H]3OC(C)=O)[C@H](OC(C)=O)[C@H]2OC(C)=O)ccc1Cl [Example 7]
- IC50 [1]: 7.97 µM

SMILES: CC(=O)OC[C@H]1O[C@H](O[C@H]2[C@H](OC(C)=O)[C@@H](OC(C)=O)[C@H](OCc3ccc(C#N)c([N+](=O)[O-])c3)O[C@@H]2COC(C)=O)[C@H](OC(C)=O)[C@@H](OC(C)=O)[C@@H]1OC(C)=O [Example 8, 5-[(Hepta-O-acetyl-β-D-maltosyl)-oxy-methyl]-2-cyano-1-nitrobenzene]
- IC50 [1]: 2.05 µM

SMILES: CC(=O)Nc1cc(COC2OC(CO)C(OC3OC(CO)C(O)C(O)C3O)C(O)C2O)ccc1Cl [Example 9, N-[2-Chloro-5-(β-D-maltosyl-oxymethyl)-phenyl]-acetamide]
- Porcine Smooth Muscle Cell Antiproliferation percent inhibition ([1]; @ 500 μM): 0% @ 500

SMILES: CC(=O)Nc1cc(CO[C@@H]2O[C@H](CO[Si](C)(C)C(C)(C)C)[C@@H](O[C@H]3O[C@H](CO[Si](C)(C)C(C)(C)C)[C@@H](O)[C@H](O)[C@H]3O)[C@H](O)[C@H]2O)ccc1C [Example 10, N-{5-[6,6′-Di-O-(tert-butyl-dimethyl-silyl)-β-D-maltosyloxy-methyl]-2-methyl-phenyl}-acetamide]
- IC50 [1]: 6.1 µM

SMILES: CC(=O)Nc1cc(CO[C@@H]2O[C@H](CO[Si](C)(C)C(C)(C)C)[C@@H](O[C@H]3O[C@H](CO[Si](C)(C)C(C)(C)C)[C@@H](O)[C@H](O)[C@H]3O)[C@H](O)[C@H]2O)ccc1Cl [Example 11, N-{2-Chloro-5-[6,6′-di-O-(tert-butyl-dimethyl-silvl)-β-D-maltosyloxy-methyl]-phenyl}-acetamide]
- IC50 [1]: 3.9 µM

SMILES: CC(=O)Nc1cc(CO[C@@H]2O[C@H](COC(=O)c3ccccc3)[C@@H](O[C@H]3O[C@H](COC(=O)c4ccccc4)[C@@H](O)[C@H](O)[C@H]3O)[C@H](O)[C@H]2O)ccc1Cl [Example 12, N-{2-Chloro-5-[([6,6′-di-O-benzoyl-β-D-maltosyl]oxy)methyl]phenyl}-acetamide]
- IC50 [1]: 0.39 to 2.2 µM

SMILES: CC(=O)Nc1cc(CO[C@@H]2O[C@H](COC(=O)c3ccccc3)[C@@H](O[C@H]3O[C@H](COC(=O)c4ccccc4)[C@@H](OC(C)=O)[C@H](OC(C)=O)[C@H]3OC(C)=O)[C@H](OC(C)=O)[C@H]2OC(C)=O)ccc1Cl [Example 13, N-{2-Chloro-5-[([6,6′-di-O-benzoyl-2,2′,3,3′,4′-penta-acetyl-β-D-maltosyl]oxy)methyl]phenyl}-acetamide]
- IC50 [1]: 0.36 µM

SMILES: O=C(OC[C@H]1O[C@H](O[C@H]2[C@H](O)[C@@H](O)[C@H](OCc3ccc(Cl)c([N+](=O)[O-])c3)O[C@@H]2COC(=O)c2cccnc2)[C@H](O)[C@@H](O)[C@@H]1O)c1cccnc1 [Example 14, (4-Chloro-3-nitrophenyl)methyl-4-O-[6-O-(3-pyridinylcarbonyl)-α-D-glucopyranosyl]-β-D-glucopyranoside-6-(3-pyridinecarboxylate)]
- IC50 [1]: 6.56 µM

SMILES: O=C(OC[C@H]1O[C@H](O[C@H]2[C@H](O)[C@@H](O)[C@H](OCc3ccc(Cl)c([N+](=O)[O-])c3)O[C@@H]2CO)[C@H](O)[C@@H](O)[C@@H]1O)c1cccnc1 [Example 15, (4-Chloro-3-nitrophenyl)methyl-4-O-[6-O-(3-pyridinylcarbonyl)-α-D-glucopyranosyl]-β-D-glucopyranoside]
- IC50 [1]: 73.2 µM

- melting point: > 106 °C (dec.)
SMILES: O=C(Nc1cc(CO[C@@H]2O[C@H](CO)[C@@H](O[C@H]3O[C@H](CO)[C@@H](O)[C@H](O)[C@H]3O)[C@H](O)[C@H]2O)ccc1Cl)c1cccnc1 [Example 16, N-[2-Chloro-5-[[(4-O-α-D-glucopyranosyl-β-D-glucopyranosyl)oxy]methyl]phenyl]-3-pyridinecarboxamide]
- inhibition at 50 µM ([1]; Sus scrofa, @ 50 μM, read-out: Porcine Smooth Muscle Cell Antiproliferation percent inhibition): 18%

SMILES: O=C(Nc1cc(COC2OC(COC(=O)c3ccccc3)C(OC3OC(CO)C(O)C(O)C3O)C(O)C2O)ccc1Cl)c1cccnc1 (stereo not drawn) [Example 17, Benzoic acid 6-{4-chloro-3-[(pyridine-3-carbonyl)-amino]-benzyloxy}-4,5-dihydoxy-3-(3,4,5-trihydroxy-6-hydroxymethyl-tetrahydro-pyran-2-yloxy)-tetrahydro-pyran-2-ylmethyl ester hydrochloride]
- IC50 [1]: 0.245 µM

SMILES: O=[N+]([O-])c1cc(CS[C@@H]2O[C@H](CO)[C@@H](O[C@H]3O[C@H](CO)[C@@H](O)[C@H](O)[C@H]3O)[C@H](O)[C@H]2O)ccc1Cl [Example 18, (4-Chloro-3-nitro-benzyl)-1-deoxy-1-thio-β-D-maltoside]
- Porcine Smooth Muscle Cell Antiproliferation percent inhibition ([1]; @ 50 μM): 25% @ 50

SMILES: CC(=O)Nc1cc(CSC2OC(CO)C(OC3OC(CO)C(O)C(O)C3O)C(O)C2O)ccc1Cl (stereo not drawn) [Example 19]
- Porcine Smooth Muscle Cell Antiproliferation percent inhibition ([1]; @ 50 μM): 28% @ 50

SMILES: Cc1ccc(S(=O)(=O)OC[C@H]2O[C@H](O[C@H]3[C@H](O)[C@@H](O)[C@H](OCc4ccc(C)c([N+](=O)[O-])c4)O[C@@H]3COS(=O)(=O)c3ccc(C)cc3)[C@H](O)[C@@H](O)[C@@H]2O)cc1 [Example 20, 5-{[6,6′-Bis-O-(4-toluenesulfonyl)-β-maltosyl]-oxy-methyl}-2-methyl-1-nitrobenzene]
- IC50 [1]: 0.74 µM

SMILES: CC(=O)O[C@@H]1[C@@H](OC(C)=O)[C@@H](O[C@H]2[C@H](OC(C)=O)[C@@H](OC(C)=O)[C@H](OCc3ccc(C)c([N+](=O)[O-])c3)O[C@@H]2COS(=O)(=O)c2ccc(C)cc2)O[C@H](COS(=O)(=O)c2ccc(C)cc2)[C@H]1OC(C)=O [Example 21, 5-{[2,2′,3,3′,4′-Penta-O-acetyl-6,6′-bis-O-(4-toluenesulfonyl)-β-maltosyl]-oxy-methyl}-2-methyl-1-nitrobenzene]
- IC50 [1]: 67.4 µM

SMILES: Cc1ccc(CO[C@@H]2O[C@H](Cn3cnc([N+](=O)[O-])c3)[C@@H](O[C@H]3O[C@H](Cn4cnc([N+](=O)[O-])c4)[C@@H](O)[C@H](O)[C@H]3O)[C@H](O)[C@H]2O)cc1[N+](=O)[O-] [Example 22, 5-{[6,6′-Dideoxy-6,6′-bis(4-nitro-imidazol-1-yl)-β-maltosyl]-oxy-methyl}-2-methyl-1-nitrobenzene]
- Porcine Smooth Muscle Cell Antiproliferation percent inhibition ([1]; @ 100 μM): 23% @ 100

SMILES: CC(=O)O[C@@H]1[C@@H](OC(C)=O)[C@@H](O[C@H]2[C@H](OC(C)=O)[C@@H](OC(C)=O)[C@H](OCc3ccc(C)c([N+](=O)[O-])c3)O[C@@H]2Cn2cnc([N+](=O)[O-])c2)O[C@H](Cn2cnc([N+](=O)[O-])c2)[C@H]1OC(C)=O [Example 23, 5-{[2,2′,3,3′,4′-Penta-O-acetyl-6,6′-dideoxy-6,6′-bis(4-nitro-imidazol-1-yl)-β-maltosyl]-oxy-methyl}-2-methyl-1-nitrobenzene]
- IC50 [1]: 4.7 µM

Reference: patent US7514411B2, “Acylated benzylmaltosides as inhibitors of smooth muscle cell proliferation” (Wyeth, priority 1998, dated 2009)
